Laboratory results as given in patent US20260248767A1, “METHODS FOR INDUCING FERROPTOSIS IN CANCER” (Board of Regents, The University of Texas System, priority 2023, published 2026).

Columns and labels:
SHMT2 = test: Protein level after sulfite treatment (Western blotting), SHMT2; type: cell-based; conditions: following treatment with sulfite
Experimental: To test if sulfite changed mitochondrial protein levels, SHMT2 and MTHFD2 protein levels were measured following treatment with sulfite. No changes in protein levels were observed (FIG. 9).
Briefly, cells were lysed in NP-40 lysis buffer (50 mM Tris [pH 7.4], 250 mM NaCl, 5 mM EDTA, 50 mM NaF, 1 mM Na3VO4, 1% Nonidet P40) containing complete mini protease inhibitors (Roche). The protein concentration of lysates was quantified using BCA Protein Assay Kit from Life Technologies (#23227). 20 μg of total protein was loaded into SDS-PAGE gel and transferred to a PVDF membrane (Bio-Rad) using standard techniques. The primary antibodies and concentrations used for Western blotting were Vinculin (1:1000, Sigma-Aldrich, #V4505), SUOX (1:1000, Abcam, #ab129094), SHMT2 (1:1000, Sigma-Aldrich, #HPA-020549), IDH1 (1:1000, Proteintech, #12332-1-AP), ME1 (1:1000,), MTHFD2 (1:1000, Abcam, #ab56772), Flag (1:1000, Sigma, #F1804), GPX4 (1:1,000, R&D, #MAB5457), COQ2 (1:1,000, Santa Cruz, sc-517107) and FSP1 (1:1000, Proteintech, #20886-1-AP).

HT-1080 cells [1] = test: Cell viability assay (CCK-8); type: cell-based, human
Experimental: Cell viability was measured using a Cell Counting Kit-8 (CCK-8, Dojindo) as previously described (Koppula, P., et al. J Biol Chem 292, 14240-14249, doi: 10.1074/jbc.M117.798405 (2017); Liu, X. et al. Nat Cell Biol 18, 431-442, doi: 10.1038/ncb3328 (2016)). In brief, cells were seeded onto 96-well plates at a density of 1×10^4 per well. The next day, cells were treated with indicated compound for 16-20 h. Subsequently, cells were changed to new 100 μl medium containing 10 μl CCK-8 reagent for 1 h at 37° C., 5% CO2 in incubator. The absorbance at 450 nm was determined using a FLUOstar Omega microplate reader (BMG Labtech).

HT-1080 cells [2] = test: Cell death assay (PI flow cytometry), HT-1080 cells incl. knockout lines
Experimental: Initially, the effect of sulfite on ferroptosis was studied. […] Each group was treated with vehicle alone or with sulfite.
The knockout cells were identified by immunoblotting.
Briefly, cells were seeded in 12-well plates and incubated overnight. After treatment, cells were trypsinized and collected. After washing with cold phosphate-buffered saline (PBS), the cells were stained with 2 μg/mL propidium iodide (PI) in cold PBS. […] All experiments were performed in triplicates.

NADP+/NADPH = test: NADP+ and NADPH measurement; type: cell-based; conditions: treated vs untreated cells
HT-1080 cells [3] = test: Relative mitochondrial lipid peroxidation level; type: cell-based, human; conditions: combined with RSL3, compared to RSL3 alone

`O=S([O-])[O-].[Na+].[Na+]` [sulfite, sodium sulfite] was tested, and the SHMT2 protein level (SHMT2) was “No changes”, the “cell viability when combined with different concentrations of RSL3” value (HT-1080 cells [1]; combined with RSL3, range of concentrations) was “reduces cell viability” and the “sensitization effect on cell viability in SHMT2 knock out cells” value (HT-1080 cells [1]; sulfite plus multiple concentrations of RSL3, SHMT2 knock out vs wild type) was “much weaker than in wild type cells”. The “cell death as observed visually” value (HT-1080 cells [2]; 0.5 mM, cancer cells, presence or absence of RSL3) was “resulted in cell death”, the “sensitization of knock out cells to ferroptosis” value (HT-1080 cells [2]; GPX4, FSP1, COQ2 and DHODH knock out cell lines) was “can still sensitize” and the “cell death in combination with RSL3 in SHMT2 knock out cells” value (HT-1080 cells [2]; RSL3+Sulfite vs RSL3 alone, SHMT2 knock out cells (FIG. 5J)) was “slight increase in cell death”. The “cell death in combination with RSL3 in SUOX knockout cells” value (HT-1080 cells [2]; SUOX knockout HT-1080 cells, vs RSL3 alone) was “significantly more cell death”, the “sensitization to RSL3 induced ferroptosis under co-treatment with ferroptosis regulator inhibitors” value (HT-1080 cells [2]; co-treatment with 4CBA, iFSP1 or brequinar (BQR)) was “can still sensitize” and the “cell death in combination with RSL3” value (HT-1080 cells [2]; combined with RSL3, compared to RSL3 alone) was “significant increased cell death”. The “cell death in combination with FIN56” value (HT-1080 cells [2]; combined with ferroptosis inducer FIN56) was “similarly enhanced”, the “cell death in combination with JKE-1674” value (HT-1080 cells [2]; combined with ferroptosis inducer JKE-1674 (JKE)) was “similarly enhanced” and the “cell death in combination with ML-162” value (HT-1080 cells [2]; combined with ferroptosis inducer ML-162) was “similarly enhanced”. For the same compound, the “cell death in combination with ML-210” value (HT-1080 cells [2]; combined with ferroptosis inducer ML-210) was “similarly enhanced”, the “NADP+/NADPH ratio” value (NADP+/NADPH) was “increase” and the “relative mitochondrial lipid peroxidation level in combination with RSL3” value (HT-1080 cells [3]) was “significantly increased”.
